Source: ChEMBL document CHEMBL3352139, “Unambiguous Determination of the Absolute Configuration of Dimeric Stilbene Glucosides from the Rhizomes of Gnetum africanum” (J Nat Prod, 2014)

What follows are compounds tested against Amyloid-beta precursor protein (Homo sapiens) (UniProt P05067) (assay: Inhibition of Amyloid beta (25 to 35) (unknown origin) polymerization assessed as reduction in beta-amyloid fibril formation at 10 uM after 6 hrs by UV-visible spectroscopy).
Sequence of Amyloid-beta precursor protein (Homo sapiens) (P05067 whole entry): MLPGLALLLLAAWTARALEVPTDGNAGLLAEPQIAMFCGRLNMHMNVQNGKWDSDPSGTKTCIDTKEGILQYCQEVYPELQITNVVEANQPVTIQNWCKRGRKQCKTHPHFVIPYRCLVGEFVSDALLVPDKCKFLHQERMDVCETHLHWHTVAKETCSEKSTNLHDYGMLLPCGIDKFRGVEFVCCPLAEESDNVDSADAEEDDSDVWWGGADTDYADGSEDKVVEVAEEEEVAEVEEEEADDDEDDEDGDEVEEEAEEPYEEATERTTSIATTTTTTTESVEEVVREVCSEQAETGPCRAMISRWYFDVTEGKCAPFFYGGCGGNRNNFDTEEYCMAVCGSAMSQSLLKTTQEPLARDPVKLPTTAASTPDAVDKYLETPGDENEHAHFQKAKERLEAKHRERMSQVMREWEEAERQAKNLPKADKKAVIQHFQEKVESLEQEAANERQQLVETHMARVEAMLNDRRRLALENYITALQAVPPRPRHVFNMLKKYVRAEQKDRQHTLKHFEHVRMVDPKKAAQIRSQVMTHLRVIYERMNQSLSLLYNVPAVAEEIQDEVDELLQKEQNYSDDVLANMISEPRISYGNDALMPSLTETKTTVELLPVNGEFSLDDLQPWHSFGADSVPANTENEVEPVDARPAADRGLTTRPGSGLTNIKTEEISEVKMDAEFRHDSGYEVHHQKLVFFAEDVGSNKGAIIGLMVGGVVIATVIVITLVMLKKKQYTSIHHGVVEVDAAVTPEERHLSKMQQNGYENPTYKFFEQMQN

Row | SMILES | inhibition
1 | OC[C@H]1O[C@@H](Oc2ccc([C@H]3Oc4cc(/C=C/c5ccc(O)cc5)cc(O)c4[C@@H]3c3cc(O)cc(O)c3)cc2)[C@H](O)[C@@H](O)[C@@H]1O | 58%
2 | OC[C@H]1O[C@@H](Oc2ccc(/C=C/c3cc(O)c4c(c3)O[C@H](c3ccc(O)cc3)[C@H]4c3cc(O)cc(O)c3)cc2)[C@H](O)[C@@H](O)[C@@H]1O | 54%
3 | OC[C@H]1O[C@@H](Oc2ccc(/C=C/c3cc(O)c4c(c3)O[C@H](c3ccc(O[C@@H]5O[C@H](CO)[C@@H](O)[C@H](O)[C@H]5O)cc3)[C@H]4c3cc(O)cc(O)c3)cc2)[C@H](O)[C@@H](O)[C@@H]1O | 56%
4 | OC[C@H]1O[C@@H](Oc2ccc(/C=C/c3cc(O)c4c(c3)O[C@@H](c3ccc(O[C@@H]5O[C@H](CO)[C@@H](O)[C@H](O)[C@H]5O)cc3)[C@@H]4c3cc(O)cc(O)c3)cc2)[C@H](O)[C@@H](O)[C@@H]1O | 56%
